In the SangsterLogP compilation:

Columns and labels:
[1] = method code SF-RC, from DOI: 10.1016/j.apradiso.2005.06.012, PMID: 16131471; conditions: pH 7.5
[2] = method code SF-HPLC, from DOI: 10.1002/etc.5620170216
[3] = method code SF-HPLC, from DOI: 10.1016/s0223-5234(97)84356-5
[4] = not given; remark: listed apart in the source
[5] = not given; remark: listed apart in the source
[6] = not given; remark: listed apart in the source
[7] = not given; remark: listed apart in the source
[8] = method code SF, from DOI: 10.1248/cpb.34.4787
[9] = method code SF-AS, from DOI: 10.1002/jps.2600751012, PMID: 3795027
[10] = method code SF-RC, from PMID: 892676
[11] = method code SF-AS, from DOI: 10.1211/0022357001773940, PMID: 10757413; conditions: pH 7.4
[12] = method code SF-GLC, from DOI: 10.1016/s0380-1330(82)71969-0
[13] = not given; remark: listed apart in the source
[14] = method code SF-TN, from DOI: 10.1002/jps.2600741210, PMID: 4087196; conditions: pH 7.4
[15] = method code SF-AS, from PMID: 582409; conditions: pH 7.4
[16] = method code SF-AS, from DOI: 10.1002/em.2850200210, PMID: 1505530
[17] = method code SF, from He, J.; Lang, L.; Zhang, Q.; Dong, L.; Chen, F.; Xu, G. (2010). Study on physicochemical properties of helicid. China Pharmacy, (1)23-25.; conditions: pH 2.0
[18] = method code SF-AS, from DOI: 10.1584/jpestics.8.69
[19] = method code SF-RC, from PMID: 7826467
[20] = method code SF-HPLC, from DOI: 10.3109/03639045.2012.690417, PMID: 22670797
[21] = method code SF-RC, from DOI: 10.1007/bf00263256, PMID: 6394334
[22] = method code SF-RC, from DOI: 10.1002/syn.20147; conditions: pH 7.4
[23] = method code SF-AS, from DOI: 10.1021/js960328j, PMID: 9050798; conditions: pH 6.6
[24] = method code SF-AS, from DOI: 10.1081/jlc-100104900; conditions: pH 1.0
[25] = not given; remark: listed apart in the source
[26] = method code SF-RC, from DOI: 10.1021/jm8013376, PMID: 19216563; conditions: pH 7.4
[27] = not given; remark: listed apart in the source
[28] = from Maeno, S., Miura, I., Masuda, K., & Nagata, T. (1990). Mepanipyrim(KIF-3535), a new pyrimidine fungicide. In Brighton Crop Protection Conference, Pests and Diseases - 1990 (Vol. 2, pp. 415-422). …
[29] = method code …, from Pirumyan, G.; Martiryan, A.; Skurlator, Yu.; Petrosyan, D.; Akhnazaryan, A.; Arutyunyan, V. (1988). Transformations of pyrazolone compounds for fish farming in aqueous medium. Chemical Journal of …
[30] = not given; remark: listed apart in the source
[31] = not given; remark: listed apart in the source
[32] = method code SF-RC, from DOI: 10.1016/j.nucmedbio.2009.03.005, PMID: 19647167; conditions: pH 7.4
[33] = not given; remark: listed apart in the source
[34] = method code SF-RC, from DOI: 10.1016/s0969-8051(00)00080-9, PMID: 10832080; conditions: pH 13.0
[35] = method code SF, from DOI: 10.1016/s0021-9673(00)89463-7; conditions: pH 2.4
[36] = not given; remark: listed apart in the source
[37] = not given; remark: listed apart in the source
[38] = not given; remark: listed apart in the source
[39] = not given; remark: listed apart in the source
[40] = not given; remark: listed apart in the source
[41] = not given; remark: listed apart in the source
[42] = not given; remark: listed apart in the source
[43] = not given; remark: listed apart in the source
[44] = method code SF-GLC, from DOI: 10.1002/etc.5620080702
[45] = method code SF, from DOI: 10.1016/j.ejps.2007.04.003, PMID: 17540545; conditions: pH 3.0
[46] = not given; remark: listed apart in the source
[47] = method code SF-AS, from DOI: 10.1211/0022357011776199, PMID: 11428660; conditions: pH 7.4
[48] = method code SF-GLC, from DOI: 10.1016/j.chemosphere.2013.04.065, PMID: 23732011
[49] = method code SF-HPLC, from DOI: 10.1021/jm970790w, PMID: 9548821; conditions: pH 7.4
[50] = method code SF-AS, from DOI: 10.1021/jm00001a010, PMID: 7837239; conditions: pH 7.0

## COc1ccc2[nH]c(I)c(CCNC(C)=O)c2c1
[1]
  logD: 2.52

## c1ccc2cc3ccccc3cc2c1
[2]
  logP: 4.68

## CCNc1ccc(C(=O)OCCN(C)C)cc1
other
  logP: 2.62

## CC(=O)Nc1nc2c(ncn2COCCOC(C)=O)c(=O)[nH]1
[3]
  logP: -0.83

## N#Cc1ccc(NS(=O)(=O)c2ccc(N)cc2)cc1
[4]
  logP: 1.43

## Clc1ccc(C(c2ccc(Cl)cc2)C(Cl)Cl)cc1
[5]
  logP: 5.19

## O=C(O)c1cc(-c2ccc(F)cc2F)ccc1O
[6]
  logP: 3.95

## CC(C)c1cccc(C(C)C)c1O
[7]
  logP: 3.63

## O=C(O)c1ccc(-c2ccccc2)cc1
[8]
  logP: 3.75

## O=C(OCc1ccccc1)c1cccnc1
[9]
  logP: 2.4

## O=C(Nc1ccc(Cl)cc1)Nc1ccc(Cl)c(C(F)(F)F)c1
[10]
  logP: 2.93

## CCc1c(O)c(=O)ccn1CCCn1ccnc1
[11]
  logD: -0.32

## Clc1ccc(C(c2ccc(Cl)cc2)C(Cl)(Cl)Cl)cc1
[12]
  logP: 5.1

## CCCCCCn1c(=O)c2c(ncn2C)n(C)c1=O
[13]
  logP: 1.2

## CCCCOC(=O)[C@@H](N)Cc1ccc(O)cc1
[14]
  logD: 1.8

## COc1ccc(-c2nc3c(N)nc(N)nc3nc2N)cc1
[15]
  logD: 1.19

## O=C1c2ccccc2-c2cc([N+](=O)[O-])ccc21
[16]
  logP: 3.06

## O=Cc1ccc(O[C@@H]2O[C@H](CO)[C@@H](O)[C@@H](O)[C@H]2O)cc1
[17]
  logD: -1.08

## ClC(Cl)C(c1ccccc1)c1ccccc1
[18]
  logP: 4.51

## COc1ccc2c(C)cc(=O)n3c(C)cc1c23
[19]
  logP: 2.84

## CC(C)(C)c1ccc(/C=N/NC(N)=S)cc1
[20]
  logP: 3.9

## CC(=NO)C(C)(C)NCCCNC(C)(C)C(C)=NO
[21]
  logP: 1.76

## Cc1cc(C#N)cc(C#Cc2csc(C)n2)c1
[22]
  logD: 3.4

## CCCS(=O)c1ccc2[nH]c(NC(=O)OC)nc2c1 (stereo unspecified)
[23]
  logD: 1.27

## CC(C(=O)O)c1ccc(C(=O)c2ccccc2)s1 (stereo unspecified)
[24]
  logD: 2.86

## O=c1[nH]c2c(c(=O)n1C1CCCCC1)CCC2
[25]
  logP: 1.9

## Oc1ccc2nc(-c3ccccc3)sc2c1
[26]
  logD: 2.48

## Cc1cc2cccc(C)c2cc1C
[27]
  logP: 4.73

## CC#Cc1cc(C)nc(Nc2ccccc2)n1
[28]
  logP: 3.42

## CC1(C)CC(=O)NN1C=NNc1ccccc1
[29]
  logP: 0.26

## CCC(C)c1ccccc1OC(=O)NC (stereo unspecified)
[30]
  logP: 2.8

## Nc1ccc(C=Cc2ccc(N)cc2S(=O)(=O)O)c(S(=O)(=O)O)c1
[31]
  logP: -1.7

## CO/N=C1/C=C(C#Cc2cccc(F)n2)CCC1
[32]
  logD: 2.11

## Cc1cc(Cc2cc(Cl)ccc2Cl)c(Cl)cc1Cl
[33]
  logP: 6.38

## CN1C2CCC1C(c1ccc(Cl)nc1)C2 (stereo unspecified)
[34]
  logD: 2.42

## O=C(O)c1ccc2oc3ccccc3c(=O)c2c1
[35]
  logD: 3.12

## O=[N+]([O-])c1ccc(Oc2ccc(C(F)(F)F)cc2[N+](=O)[O-])cc1
[36]
  logP: 3.7

## CCOP(=O)(OCC)Oc1cc(C)nc(NC(C)C)n1
[37]
  logP: 2.07

## O=C(Oc1ccccc1)c1ccccc1
[38]
  logP: 3.5

## Cn1ccc2cc(-c3nc4ccc(F)nc4o3)cnc21
[39]
  logP: 2.91

## O=C(OCc1ccccc1)c1ccc(O)cc1
[40]
  logP: 3.56

## CCCCOC(=O)COc1cc(Cl)c(Cl)cc1Cl
[41]
  logP: 4.81

## FCCCN1CCC[C@H]1COc1cccnc1
[42]
  logP: 2.2

## Fc1cccc(-n2nnnc2Oc2ccccc2)c1
[43]
  logP: 3.6

## Clc1ccc(C2OC2c2ccccc2)cc1 (stereo unspecified)
[44]
  logP: 4.54

## CCn1cc(C(=O)O)c(=O)c2cc3c(cc21)OCO3
[45]
  logD: 1.01

## CCCCCCc1ccccc1
[46]
  logP: 5.24

## Cc1ncc([N+](=O)[O-])n1CCOC(=O)CN1CCCCC1
[47]
  logD: 0.51

## C=CCOc1ccccc1OCC=C
[48]
  logP: 2.7

## CC1(C)O[C@@H]2[C@@H](CO[C@@]3(COS(N)(=O)=O)OC(C)(C)O[C@@H]23)O1
[49]
  logD: 0.53

## C=CCn1cnc2c(=O)[nH]c(Nc3ccccc3)nc21
[50]
  logD: 1.75
